Experimental data from PubChem BioAssay (NCI).
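Briefly, cells in 96-well plates were exposed to five compound concentrations for 48 h, and endpoints were estimated by linear interpolation. GI50 is the concentration that inhibits growth by half. TGI: concentration producing complete growth inhibition.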

What was measured:
Assay in all cases: DTP human tumour cell line panel, 48 h
SK-MEL-2 melanoma = test system: SK-MEL-2 melanoma
SK-MEL-5 melanoma = test system: SK-MEL-5 melanoma
ACHN renal = test system: ACHN renal
SK-MEL-28 melanoma = test system: SK-MEL-28 melanoma
SN12C renal = test system: SN12C renal
HOP-62 NSCLC = test system: HOP-62 NSCLC
HCT-116 colon = test system: HCT-116 colon
SF-268 CNS = test system: SF-268 CNS
MALME-3M melanoma = test system: MALME-3M melanoma

Structure (SMILES)	GI50 (SK-MEL-2 melanoma) [nM]	TGI (SK-MEL-2 melanoma) [µM]	GI50 (SK-MEL-5 melanoma) [nM]	TGI (SK-MEL-5 melanoma) [µM]	GI50 (ACHN renal) [nM]	TGI (ACHN renal) [µM]	GI50 (SK-MEL-28 melanoma) [nM]	TGI (SK-MEL-28 melanoma) [µM]	GI50 (SN12C renal) [nM]	TGI (SN12C renal) [µM]	TGI (HOP-62 NSCLC) [µM]	TGI (HCT-116 colon) [µM]	TGI (SF-268 CNS) [µM]	TGI (MALME-3M melanoma) [µM]
NCCCNc1nc2ccccc2c2c(=O)c3cc(C(F)(F)F)ccc3sc12	1930	3.82	1700	3.07	1590	2.94	1810	3.23	1730	3.23	–	–	–	–
CCCN(CCCC(NC(C)=O)C(=O)NCc1ccccc1)C(=O)NC (stereo unspecified)	–	> 100	–	> 100	–	> 100	–	> 100	–	> 100	> 100	> 100	> 100	> 100
Cn1c(=O)cc(NCc2ccc(Cl)cc2)[nH]c1=O	–	> 100	–	> 100	–	> 100	–	> 100	–	> 100	77.4	> 100	69.1	> 100
COc1nc(SC)nc2c1cnn2C1OC(C(O)CO)C(OC)C1O (stereo unspecified)	–	> 100	–	> 100	–	–	–	> 100	–	> 100	> 100	> 100	> 100	> 100
COc1ccc(N=C(C)c2ccncc2)cc1	–	> 100	–	> 100	–	> 100	–	> 100	–	> 100	> 100	> 100	> 100	> 100
CCOC(=O)c1c(C)c2c(n1C)CCc1cn[nH]c1-2	–	> 100	–	> 100	–	–	–	> 100	–	> 100	> 100	> 100	> 100	> 100
CCCc1c(OC)c(=O)c2c(OC)cc(OC)c3c4c(OC)cc(OC)c5c(=O)c(OC)c(CCC)c(c1c23)c54	–	49.8	–	22.6	–	29.3	–	26.2	–	50.4	33	28	41.5	–
Clc1ccc(SCCSCCCCCCCCCCSCCSc2ccc(Cl)cc2)cc1	–	> 100	–	> 100	–	> 100	–	> 100	–	> 100	> 100	–	> 100	> 100
NC(=O)N1N=C2c3ccccc3CC[C@@H]2C1c1ccccc1 (stereo partly specified)	–	> 100	–	> 100	–	> 100	–	> 100	–	> 100	> 100	> 100	> 100	> 100
OC12COc3ccccc3C1Oc1ccccc1C2 (stereo unspecified)	–	> 100	–	> 100	–	> 100	–	–	–	> 100	> 100	> 100	> 100	> 100
